Test results: PubChem BioAssay (NCI)
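All cell lines were grown in 96-well plates and treated with compound for 48 hours. GI50 = concentration required for 50% inhibition of growth. TGI denotes the concentration required for complete inhibition of growth.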

Experiments:
Test in all cases: NCI-60 cell line screen, 48 h
[1] = system: 786-0 renal
[2] = system: A498 renal
[3] = system: A549 NSCLC
[4] = system: ACHN renal
[5] = system: CAKI-1 renal
[6] = system: CCRF-CEM leukemia
[7] = system: COLO 205 colon
[8] = system: DU-145 prostate
[9] = system: EKVX NSCLC
[10] = system: HCC-2998 colon
[11] = system: HCT-116 colon
[12] = system: HCT-15 colon
[13] = system: HL-60(TB) leukemia
[14] = system: HOP-62 NSCLC
[15] = system: HOP-92 NSCLC
[16] = system: HS 578T breast
[17] = system: HT29 colon
[18] = system: IGROV1 ovarian
[19] = system: K-562 leukemia
[20] = system: KM12 colon
[21] = system: LOX IMVI melanoma
[22] = system: M14 melanoma
[23] = system: MALME-3M melanoma
[24] = system: MCF7 breast
[25] = system: MDA-MB-231 breast
[26] = system: MDA-MB-435
[27] = system: MOLT-4 leukemia
[28] = system: NCI-H226 lung
[29] = system: NCI-H23 lung
[30] = system: NCI-H460 lung
[31] = system: NCI-H522 lung
[32] = system: NCI/ADR-RES ovarian
[33] = system: OVCAR-3 ovarian
[34] = system: OVCAR-4 ovarian
[35] = system: OVCAR-5 ovarian
[36] = system: OVCAR-8 ovarian
[37] = system: PC-3 prostate
[38] = system: RPMI-8226 leukemia
[39] = system: RXF 393 renal
[40] = system: SF-268 CNS
[41] = system: SF-295 CNS
[42] = system: SF-539 CNS
[43] = system: SK-MEL-2 melanoma
[44] = system: SK-MEL-28 melanoma
[45] = system: SK-MEL-5 melanoma
[46] = system: SN12C renal
[47] = system: SNB-19 CNS
[48] = system: SNB-75 CNS
[49] = system: SR leukemia
[50] = system: SW-620 colon
[51] = system: T-47D breast
[52] = system: TK-10 renal
[53] = system: U251 CNS
[54] = system: UACC-257 melanoma
[55] = system: UACC-62 melanoma
[56] = system: UO-31 renal

Structure (SMILES): COc1cc2c3c(n(CCCn4ccnc4)c(=O)c2cc1OC)-c1cc2c(cc1C3=O)OCO2
- GI50 [1]: < 10 nM
- TGI [1]: 91.7 nM
- GI50 [2]: 20.3 nM
- TGI [2]: 87.8 nM
- GI50 [3]: 52.8 nM
- TGI [3]: > 100000 nM
- GI50 [4]: < 10 nM
- TGI [4]: > 100000 nM
- GI50 [5]: < 10 nM
- TGI [5]: 27 nM
- GI50 [6]: < 10 nM
- TGI [6]: < 10 nM
- GI50 [7]: 312 nM
- TGI [7]: > 100000 nM
- GI50 [8]: < 10 nM
- TGI [8]: > 100000 nM
- GI50 [9]: 1100 nM
- TGI [9]: > 20900 nM
- GI50 [10]: < 10 nM
- TGI [10]: 34.5 nM
- GI50 [11]: < 10 nM
- TGI [11]: 148 nM
- GI50 [12]: 824 nM
- TGI [12]: > 100000 nM
- GI50 [13]: < 10 nM
- TGI [13]: < 19.5 nM
- GI50 [14]: < 10 nM
- TGI [14]: 153 nM
- TGI [15]: > 100000 nM
- GI50 [16]: > 100000 nM
- TGI [16]: > 100000 nM
- GI50 [17]: 94.8 nM
- TGI [17]: > 100000 nM
- GI50 [18]: 959 nM
- TGI [18]: > 100000 nM
- GI50 [19]: 12.2 nM
- GI50 [20]: 142 nM
- TGI [20]: 9320 nM
- GI50 [21]: < 10 nM
- TGI [21]: 171 nM
- GI50 [22]: < 10 nM
- TGI [22]: 100 nM
- GI50 [23]: 791 nM
- TGI [23]: > 31500 nM
- GI50 [24]: < 12.9 nM
- TGI [24]: > 100000 nM
- GI50 [25]: 347 nM
- TGI [25]: 3570 nM
- GI50 [26]: 72.8 nM
- TGI [26]: 1670 nM
- GI50 [27]: < 10 nM
- TGI [27]: < 10 nM
- GI50 [28]: < 13.5 nM
- TGI [28]: 160 nM
- GI50 [29]: 16.2 nM
- TGI [29]: 164 nM
- GI50 [30]: < 10 nM
- TGI [30]: > 21700 nM
- GI50 [31]: 369 nM
- TGI [31]: > 100000 nM
- GI50 [32]: 28.5 nM
- TGI [32]: 3590 nM
- GI50 [33]: 79.5 nM
- TGI [33]: 804 nM
- GI50 [34]: 2900 nM
- TGI [34]: > 100000 nM
- GI50 [35]: 141 nM
- TGI [35]: 8330 nM
- GI50 [36]: 280 nM
- TGI [36]: > 100000 nM
- GI50 [37]: 1280 nM
- TGI [37]: > 100000 nM
- GI50 [38]: < 10 nM
- TGI [38]: 153 nM
- GI50 [39]: > 100000 nM
- TGI [39]: > 100000 nM
- GI50 [40]: < 10 nM
- TGI [40]: > 100000 nM
- GI50 [41]: < 10 nM
- TGI [41]: 1210 nM
- GI50 [42]: < 19.3 nM
- GI50 [43]: > 100000 nM
- TGI [43]: > 100000 nM
- GI50 [44]: > 100000 nM
- TGI [44]: > 100000 nM
- GI50 [45]: 18.5 nM
- TGI [45]: 133 nM
- GI50 [46]: < 10 nM
- TGI [46]: 182 nM
- GI50 [47]: 35.8 nM
- TGI [47]: > 100000 nM
- GI50 [48]: 34.5 nM
- TGI [48]: > 100000 nM
- GI50 [49]: < 10 nM
- TGI [49]: < 10 nM
- GI50 [50]: < 10.9 nM
- TGI [50]: > 100000 nM
- GI50 [51]: < 10 nM
- TGI [51]: < 10 nM
- GI50 [52]: 2220 nM
- TGI [52]: > 100000 nM
- GI50 [53]: < 10 nM
- TGI [53]: 1030 nM
- GI50 [54]: 1200 nM
- TGI [54]: 26800 nM
- GI50 [55]: < 10 nM
- TGI [55]: 93.7 nM
- GI50 [56]: < 26.9 nM
- TGI [56]: > 48300 nM
